PubChem BioAssay (NCI)
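Briefly, cells in 96-well plates were exposed to five compound concentrations for 48 h, and endpoints were estimated by linear interpolation. TGI: concentration producing complete growth inhibition.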

Tests used:
Assay in all cases: inhibition of tumour cell growth, NCI panel, 48 h
HOP-92 NSCLC = tested on: HOP-92 NSCLC
786-0 renal = tested on: 786-0 renal
RXF 393 renal = tested on: RXF 393 renal
SW-620 colon = tested on: SW-620 colon
NCI-H522 lung = tested on: NCI-H522 lung
SK-OV-3 ovarian = tested on: SK-OV-3 ovarian
LOX IMVI melanoma = tested on: LOX IMVI melanoma
UO-31 renal = tested on: UO-31 renal
K-562 leukemia = tested on: K-562 leukemia
ACHN renal = tested on: ACHN renal
SN12C renal = tested on: SN12C renal
A549 NSCLC = tested on: A549 NSCLC
SK-MEL-2 melanoma = tested on: SK-MEL-2 melanoma
HCT-116 colon = tested on: HCT-116 colon
NCI-H23 lung = tested on: NCI-H23 lung
SNB-78 CNS = tested on: SNB-78 CNS
SR leukemia = tested on: SR leukemia
SF-268 CNS = tested on: SF-268 CNS
U251 CNS = tested on: U251 CNS
NCI-H226 lung = tested on: NCI-H226 lung
HCC-2998 colon = tested on: HCC-2998 colon
SF-295 CNS = tested on: SF-295 CNS
MOLT-4 leukemia = tested on: MOLT-4 leukemia
UACC-62 melanoma = tested on: UACC-62 melanoma
OVCAR-4 ovarian = tested on: OVCAR-4 ovarian
RPMI-8226 leukemia = tested on: RPMI-8226 leukemia
COLO 205 colon = tested on: COLO 205 colon
KM12 colon = tested on: KM12 colon
OVCAR-3 ovarian = tested on: OVCAR-3 ovarian
M14 melanoma = tested on: M14 melanoma
MALME-3M melanoma = tested on: MALME-3M melanoma
DMS 114 small cell lung = tested on: DMS 114 small cell lung
LXFL 529 NSCLC = tested on: LXFL 529 NSCLC
A498 renal = tested on: A498 renal
CAKI-1 renal = tested on: CAKI-1 renal
SK-MEL-28 melanoma = tested on: SK-MEL-28 melanoma
OVCAR-5 ovarian = tested on: OVCAR-5 ovarian
CCRF-CEM leukemia = tested on: CCRF-CEM leukemia
HT29 colon = tested on: HT29 colon
SNB-19 CNS = tested on: SNB-19 CNS
OVCAR-8 ovarian = tested on: OVCAR-8 ovarian
IGROV1 ovarian = tested on: IGROV1 ovarian
NCI-H460 lung = tested on: NCI-H460 lung
SF-539 CNS = tested on: SF-539 CNS
HOP-62 NSCLC = tested on: HOP-62 NSCLC
SK-MEL-5 melanoma = tested on: SK-MEL-5 melanoma
HCT-15 colon = tested on: HCT-15 colon
UACC-257 melanoma = tested on: UACC-257 melanoma
EKVX NSCLC = tested on: EKVX NSCLC

SMILES: O=C(Nc1cccc([N+](=O)[O-])c1)/C(=N\NC(=O)c1ccncc1)c1nc2ccc([N+](=O)[O-])cc2[nH]c1=O
- TGI (HOP-92 NSCLC): > 100 µM
- TGI (786-0 renal): > 100 µM
- TGI (RXF 393 renal): > 100 µM
- TGI (SW-620 colon): > 100 µM
- TGI (NCI-H522 lung): > 100 µM
- TGI (SK-OV-3 ovarian): > 100 µM
- TGI (LOX IMVI melanoma): > 100 µM
- TGI (UO-31 renal): > 100 µM
- TGI (K-562 leukemia): > 100 µM
- TGI (ACHN renal): > 100 µM
- TGI (SN12C renal): > 100 µM
- TGI (A549 NSCLC): > 100 µM
- TGI (SK-MEL-2 melanoma): > 100 µM
- TGI (HCT-116 colon): > 100 µM
- TGI (NCI-H23 lung): > 100 µM
- TGI (SNB-78 CNS): > 100 µM
- TGI (SR leukemia): > 100 µM
- TGI (SF-268 CNS): > 100 µM
- TGI (U251 CNS): > 100 µM
- TGI (NCI-H226 lung): > 100 µM
- TGI (HCC-2998 colon): 93.8 µM
- TGI (SF-295 CNS): > 100 µM
- TGI (MOLT-4 leukemia): > 100 µM
- TGI (UACC-62 melanoma): > 100 µM
- TGI (OVCAR-4 ovarian): > 100 µM
- TGI (RPMI-8226 leukemia): > 100 µM
- TGI (COLO 205 colon): > 100 µM
- TGI (KM12 colon): > 100 µM
- TGI (OVCAR-3 ovarian): > 100 µM
- TGI (M14 melanoma): > 100 µM
- TGI (MALME-3M melanoma): > 100 µM
- TGI (DMS 114 small cell lung): > 100 µM
- TGI (LXFL 529 NSCLC): > 100 µM
- TGI (A498 renal): > 100 µM
- TGI (CAKI-1 renal): > 100 µM
- TGI (SK-MEL-28 melanoma): > 100 µM
- TGI (OVCAR-5 ovarian): > 100 µM
- TGI (CCRF-CEM leukemia): > 100 µM
- TGI (HT29 colon): > 100 µM
- TGI (SNB-19 CNS): > 100 µM
- TGI (OVCAR-8 ovarian): > 100 µM
- TGI (IGROV1 ovarian): > 100 µM
- TGI (NCI-H460 lung): > 100 µM
- TGI (SF-539 CNS): > 100 µM
- TGI (HOP-62 NSCLC): > 100 µM
- TGI (SK-MEL-5 melanoma): > 100 µM
- TGI (HCT-15 colon): > 100 µM
- TGI (UACC-257 melanoma): > 100 µM
- TGI (EKVX NSCLC): > 100 µM
